Laboratory results taken from publication PMC7287874 (2020).

Assays:
[1] = test system: GR wild type (xpt-pbuX guanine riboswitch aptamer) (RNA, riboswitch) GGACAUAUAAUCGCGUGGAUAUGGCACGCAAGUUUCUACCGGGCACCGUAAAUGUCCGACUAUGUCCA; experiment: ITC; conditions: 100 mM KCl, 20 mM MgCl2, 50 mM K-HEPES, pH 7.5, 25 °C; for KD: single-site fit; for binding: no binding, highest concentration for this compound not stated
[2] = test system: GR(C74U) (RNA, riboswitch) GGACAUAUAAUCGCGUGGAUAUGGCACGCAAGUUUCUACCGGGCACCGUAAAUGUCCGAUUAUGUCCA; experiment: ITC; conditions: 100 mM KCl, 20 mM MgCl2, 50 mM K-HEPES; pH 7.5, 25 °C, single-site fit
[3] = test system: GR(C74G) (RNA, riboswitch) GGACAUAUAAUCGCGUGGAUAUGGCACGCAAGUUUCUACCGGGCACCGUAAAUGUCCGAGUAUGUCCA; experiment: ITC; conditions: 100 mM KCl, 20 mM MgCl2, 50 mM K-HEPES; pH 7.5, 25 °C, single-site fit
[4] = test system: GR(C74A) (RNA, riboswitch) GGACAUAUAAUCGCGUGGAUAUGGCACGCAAGUUUCUACCGGGCACCGUAAAUGUCCGAAUAUGUCCA; experiment: ITC; conditions: 100 mM KCl, 20 mM MgCl2, 50 mM K-HEPES; pH 7.5, 25 °C, single-site fit
[5] = test system: GR(A19C-U77G) (RNA, riboswitch) GGACCUAUAAUCGCGUGGAUAUGGCACGCAAGUUUCUACCGGGCACCGUAAAUGUCCGACUAGGUCCA; experiment: ITC; conditions: 100 mM KCl, 20 mM MgCl2, 50 mM K-HEPES; pH 7.5, 25 °C, single-site fit
[6] = test system: GR A19G U77C (RNA, riboswitch) GGACGUAUAAUCGCGUGGAUAUGGCACGCAAGUUUCUACCGGGCACCGUAAAUGUCCGACUACGUCCA; experiment: ITC; conditions: 100 mM KCl, 20 mM MgCl2, 50 mM K-HEPES; pH 7.5, 25 °C, single-site fit
[7] = test system: GR A19G U77 (RNA, riboswitch) GGACGUAUAAUCGCGUGGAUAUGGCACGCAAGUUUCUACCGGGCACCGUAAAUGUCCGACUAUGUCCA; experiment: ITC; conditions: 100 mM KCl, 20 mM MgCl2, 50 mM K-HEPES; pH 7.5, 25 °C, single-site fit
[8] = test system: GR A19U U77A (RNA, riboswitch) GGACUUAUAAUCGCGUGGAUAUGGCACGCAAGUUUCUACCGGGCACCGUAAAUGUCCGACUAAGUCCA; experiment: ITC; conditions: 100 mM KCl, 20 mM MgCl2, 50 mM K-HEPES; pH 7.5, 25 °C, single-site fit
[9] = test system: GR A19C C74U U77G (RNA, riboswitch) GGACCUAUAAUCGCGUGGAUAUGGCACGCAAGUUUCUACCGGGCACCGUAAAUGUCCGAUUAGGUCCA; experiment: ITC; conditions: 100 mM KCl, 20 mM MgCl2, 50 mM K-HEPES; pH 7.5, 25 °C, single-site fit
[10] = test system: GR A19G C74U U77C (RNA, riboswitch) GGACGUAUAAUCGCGUGGAUAUGGCACGCAAGUUUCUACCGGGCACCGUAAAUGUCCGAUUACGUCCA; experiment: ITC; conditions: 100 mM KCl, 20 mM MgCl2, 50 mM K-HEPES; pH 7.5, 25 °C, single-site fit
[11] = test system: GR A19U C74U U77A (RNA, riboswitch) GGACUUAUAAUCGCGUGGAUAUGGCACGCAAGUUUCUACCGGGCACCGUAAAUGUCCGAUUAAGUCCA; experiment: ITC; conditions: 100 mM KCl, 20 mM MgCl2, 50 mM K-HEPES; pH 7.5, 25 °C, single-site fit
[12] = test system: GR RNA, crystallized (RNA, riboswitch) GGACAUAUAAUCGCGUGGAUAUGGCACGCAAGUUUCUACCGGGCACCGUAAAUGUCCGACUAUGUCC; experiment: X-ray crystallography; conditions: cobalt hexammine 30–50 mM, ammonium acetate 600–650 mM, 10 mM K-HEPES pH 7.5, PEG 3000, 24 °C

`NS(=O)(=O)c1ccc(Nc2nc(OCC3CCCCC3)c3nc[nH]c3n2)cc1` gave a KD [1] of 5600 ± 600 nM.
With `O=C(COc1ccccc1)Nc1nc2[nH]cnc2c(=O)[nH]1` the KD [1] was 8.8 ± 0.5 nM, the KD [2] was 7500 ± 800 nM and the KD [3] was 42,000 ± 2000 nM. The KD [4] was 85,000 ± 25,000 nM, the KD [5] was 2.2 ± 0.6 nM and the KD [6] was 4.9 ± 1.2 nM. For the same compound, the KD [7] was 5.4 ± 1.2 nM, the KD [8] was 7.8 ± 1.6 nM and the KD [9] was 4100 ± 400 nM. For the same compound, the KD [10] was 44,000 ± 4000 nM and the KD [11] was 66,000 ± 5000 nM.
`CC(C)(C)C(=O)Nc1nc2[nH]cnc2c(=O)[nH]1` was tested, and the KD [1] was 230,000 ± 10,000 nM.
`Nc1nc2[nH]c(O)nc2c(=O)[nH]1` was tested, and the KD [1] was 10 ± 4 nM.
In the case of `O=c1c2[nH]cnc2nc2ncccn12`, the binding [1] is reported as “no”.
With `Nc1nc(OCc2ccccc2)c2[nH]cnc2n1` the binding [1] was “no”.
For `CC1CC(O)n2c(nc3[nH]cnc3c2=O)N1` (stereo not shown), the KD [1] was 79,000 ± 1000 nM.
In the case of `Nc1nc2[nH]c(N)nc2c(=O)[nH]1`, the KD [1] is reported as 36 ± 13 nM and the binding [12] is reported as “yes”.
With `Nc1nc(OCC2CCCCC2)c2[nH]cnc2n1` the KD [1] was 17,000 ± 1000 nM and the binding [12] was “yes”.
In the case of `CNc1nc2[nH]cnc2c(=O)[nH]1`, the KD [1] is reported as 17,000 ± 1000 nM.
In the case of `Nc1nc(NC2CC2)c2nc[nH]c2n1`, the KD [1] is reported as 25,000 ± 3000 nM.
In the case of `CC(=O)Nc1nc2[nH]cnc2c(=O)[nH]1`, the KD [1] is reported as 300 ± 10 nM and the binding [12] is reported as “yes”.
With `Nc1nc2c(=O)[nH]cnc2[nH]1` the KD [1] was 14,000 ± 1000 nM.
`COc1nc(N)nc2[nH]cnc12` gave a KD [1] of 6400 ± 400 nM.
In the case of `Nc1nc(Cl)c2[nH]cnc2n1`, the KD [1] is reported as 340 ± 30 nM.
`CC(C)C(=O)Nc1nc2[nH]cnc2c(=O)[nH]1` was tested, and the KD [1] was 7.4 ± 0.5 nM and the KD [5] was 4.5 ± 2.0 nM.
`O=c1[nH]cnc2nc[nH]c12` showed a KD [1] of 240 ± 30 nM.
For `Nc1nc2[nH]cnc2c(=O)[nH]1`, the KD [1] was 2.1 ± 0.7 nM, the KD [5] was 0.85 ± 0.31 nM and the binding ([12]; 1.6 Å) was “yes”.
